Experimental data from paper PMC9543606, “Structural and ITC Characterization of Peptide‐Protein Binding: Thermodynamic Consequences of Cyclization Constraints, a Case Study on Vascular Endothelial Growth Factor Ligands” (Chemistry (Weinheim an Der Bergstrasse, Germany), 2022).
Where “and” joins values, the source holds several entries; their conditions need not be identical. Equal values may be shown once. Read-outs that look alike come from different tables or passages of the source. Where a SMILES comes first, the peptide text is derived from it. Bridges are numbered along the chain shown (N, C = ends). [ ]: non-standard residue; d: D form. Nle = CCCC[C@H](N)C(=O)O

Target: VEGF (Homo sapiens, UniProt P15692)
Conditions: for Δ(ΔH 20 °C) / Δ(‐TΔS) 20 °C / Δ(ΔH 37 °C) / Δ(‐TΔS) 37 °C / Δ(ΔCp) / Δ(ΔG 20 °C) / Δ(ΔG 37 °C): ± at P=95 %; for ΔG / −TΔS / ΔH / ΔCp: ITC, 95 % confidence interval in brackets; for ΔG / −TΔS / ΔH: 50 mM HEPES/NaOH, 150 mM NaCl, pH 7.5, first binding site; for ΔG: calculated from Kd (Eq. 1); for −TΔS: calculated from ΔG and ΔH (Eq. 2); for ΔH: normalised on reverse titrations; for ΔCp: heat capacity change on binding from ΔH at 20 °C and 37 °C (Eq. 3)
[1] = 20 °C, bicyclic peptide minus its monocyclic counterpart
[2] = 37 °C, bicyclic peptide minus its monocyclic counterpart
[3] = bicyclic peptide minus its monocyclic counterpart
[4] = 20 °C, monocyclic peptide minus peptide 4 (pairs 1–4, 3–4)
[5] = 37 °C, monocyclic peptide minus peptide 4 (pairs 1–4, 3–4)
[6] = 20 °C, peptide 2 minus peptide 1 (pair 2–1)
[7] = 20 °C, peptide 2 minus peptide 3 (pair 2–3)
[8] = 37 °C, peptide 2 minus peptide 1 (pair 2–1)
[9] = 37 °C, peptide 2 minus peptide 3 (pair 2–3)

Sequence of VEGF (P15692 219-313): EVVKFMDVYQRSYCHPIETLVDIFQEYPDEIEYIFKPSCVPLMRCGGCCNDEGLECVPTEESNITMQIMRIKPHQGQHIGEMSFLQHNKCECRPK

| Δ(ΔH 20 °C) [1] | Δ(‐TΔS) 20 °C [1] | Δ(ΔH 37 °C) [2] | Δ(‐TΔS) 37 °C [2] | ΔG (20 °C) | −TΔS (20 °C) | ΔH (20 °C) | ΔG (37 °C) | −TΔS (37 °C) | ΔH (37 °C) | ΔCp | Δ(ΔCp) [3] | Structure (SMILES) | also measured |
| --- | --- | --- | --- | --- | --- | --- | --- | --- | --- | --- | --- | --- | --- |
| 1.2±0.7 kcal⋅mol^−1 | −1.6±0.8 kcal⋅mol^−1 | 0.6±0.6 kcal⋅mol^−1 | −1.1±0.7 kcal⋅mol^−1 | −.89 [−10.01; −9.78] kcal⋅mol^−1 | 6.1 [5.6; 6.5] kcal⋅mol^−1 | −16.0 [−16.3; −15.6] kcal⋅mol^−1 | −9.61 [−9.71; −9.52] kcal⋅mol^−1 | 12.8 [12.3; 13.2] kcal⋅mol^−1 | −22.4 [−22.8; −22.0] kcal⋅mol^−1 | −0.38 [−0.41; −0.35] kcal⋅mol^−1.K^−1 | −0.04±0.05 kcal⋅mol^−1.K^−1 | CCCC[C@@H]1NC(=O)[C@H](C(C)C)NC(=O)[C@H](Cc2c[nH]cn2)NC(=O)[C@H]([C@@H](C)CC)NC(=O)[C@H](CC(=O)O)NC(=O)[C@@H](N)CSSC[C@@H]2NC(=O)[C@H](CCC(=O)NCCCC[C@@H](C(=O)N[C@@H](CC(C)C)C(N)=O)NC(=O)[C@H](CCC(=O)O)NC(=O)[C@H](Cc3ccccc3)NC2=O)NC(=O)[C@H](Cc2c[nH]c3ccccc23)NC(=O)[C@H](CCC(=O)O)NC(=O)[C@H](Cc2c[nH]c3ccccc23)NC1=O [3 c] |  |
| 1.4±0.7 kcal⋅mol^−1 | −1.3±0.9 kcal⋅mol^−1 | 0.8±1.2 kcal⋅mol^−1 | −0.8±1.3 kcal⋅mol^−1 | −9.16 [−9.27; −9.05] kcal⋅mol^−1 | 6.8 [6.1; 7.6] kcal⋅mol^−1 | −16.0 [−16.6; −15.4] kcal⋅mol^−1 | −8.68 [−8.79; −8.56] kcal⋅mol^−1 | 13.5 [12.5; 14.7] kcal⋅mol^−1 | −22.2 [−23.2; −21.3] kcal⋅mol^−1 | −0.37 [−0.43; −0.31] kcal⋅mol^−1.K^−1 | −0.04±0.08 kcal⋅mol^−1.K^−1 | CCCC[C@@H]1NC(=O)[C@H](C(C)C)NC(=O)[C@H](Cc2c[nH]cn2)NC(=O)[C@H]([C@@H](C)CC)NC(=O)[C@H](CC(=O)O)NC(=O)[C@@H](N)CSSC[C@@H]2NC(=O)[C@H](CCCCNC(=O)CC[C@@H](C(=O)N[C@@H](CC(C)C)C(N)=O)NC(=O)[C@H](CCC(=O)O)NC(=O)[C@H](Cc3ccccc3)NC2=O)NC(=O)[C@H](Cc2c[nH]c3ccccc23)NC(=O)[C@H](CCC(=O)O)NC(=O)[C@H](Cc2c[nH]c3ccccc23)NC1=O [4 c] (H-CDIHV[Nle]WEWKCFEEL-NH2; disulfide 1-11; lactam 10-14) | Δ(ΔG 20 °C) (20 °C, bicyclic peptide minus its monocyclic counterpart (1 c–1, 2 c–2, 3 c–3, 4 c–4)): 0.06±0.12 kcal⋅mol^−1; Δ(ΔG 37 °C) [2]: 0.04±0.14 kcal⋅mol^−1 |
|  |  |  |  | −9.05 [−9.15; −8.97] kcal⋅mol^−1 | 8.7 [8.2; 9.3] kcal⋅mol^−1 |  | −8.51 [−8.56; −8.46] kcal⋅mol^−1 | 14.2 [13.8; 14.7] kcal⋅mol^−1 | −22.8 [−23.1; −22.4] kcal⋅mol^−1 | −0.29 [−0.32; −0.26] kcal⋅mol^−1.K^−1 |  | CCCC[C@@H]1NC(=O)[C@H](C(C)C)NC(=O)[C@H](Cc2c[nH]cn2)NC(=O)[C@H]([C@@H](C)CC)NC(=O)[C@H](CC(=O)O)NC(=O)[C@@H](N)CSSC[C@@H](C(=O)N[C@@H](Cc2ccccc2)C(=O)N[C@@H](CCC(=O)O)C(=O)N[C@@H](CC(=O)O)C(=O)N[C@@H](CC(C)C)C(N)=O)NC(=O)[C@H](CCCCN)NC(=O)[C@H](Cc2c[nH]c3ccccc23)NC(=O)[C@H](CCC(=O)O)NC(=O)[C@H](Cc2c[nH]c3ccccc23)NC1=O [compound 1] (H-CDIHV[Nle]WEWKCFEDL-NH2; disulfide 1-11) | Δ(ΔG 20 °C) [4]: 0.2 ± 0.1 kcal⋅mol^−1 and 0.16±0.10 kcal⋅mol^−1; Δ(ΔH 20 °C) [4]: -0.4 ± 0.6 kcal⋅mol^−1; Δ(‐TΔS) 20 °C [4]: 0.6 ± 0.7 kcal⋅mol^−1; Δ(ΔG 37 °C) [5]: 0.2 ± 0.1 kcal⋅mol^−1 and 0.20±0.09 kcal⋅mol^−1; Δ(ΔH 37 °C) [5]: 0.2 ± 0.8 kcal⋅mol^−1; Δ(‐TΔS) 37 °C [5]: 0.0 ± 1.0 kcal⋅mol^−1; Δ(ΔCp) (monocyclic peptide minus peptide 4 (pairs 1–4, 3–4)): 0.04±0.06 kcal⋅mol^−1.K^−1 |
|  |  |  |  | −9.13 [−9.21; −9.05] kcal⋅mol^−1 | 6.7 [6.3; 7.1] kcal⋅mol^−1 |  | −8.76 [−8.82; −8.70] kcal⋅mol^−1 | 13.3 [12.7; 13.9] kcal⋅mol^−1 | −22.0 [−22.6; −21.5] kcal⋅mol^−1 | −0.36 [−0.40; −0.32] kcal⋅mol^−1.K^−1 |  | CCCC[C@@H]1NC(=O)[C@H](C(C)C)NC(=O)[C@H](Cc2c[nH]cn2)NC(=O)[C@H]([C@@H](C)CC)NC(=O)[C@H](CC(=O)O)NC(=O)[C@@H](N)CSSC[C@@H](C(=O)N[C@@H](Cc2ccccc2)C(=O)N[C@@H](CCC(=O)O)C(=O)N[C@@H](CCCCN)C(=O)N[C@@H](CC(C)C)C(N)=O)NC(=O)[C@H](CC(=O)O)NC(=O)[C@H](Cc2c[nH]c3ccccc23)NC(=O)[C@H](CCC(=O)O)NC(=O)[C@H](Cc2c[nH]c3ccccc23)NC1=O [compound 2] | Δ(ΔG 20 °C) [6]: −0.08±0.12 kcal⋅mol^−1; Δ(ΔH 20 °C) [6]: 2.0 ± 0.6 kcal⋅mol^−1; Δ(ΔG 20 °C) [7]: 0.3 ± 0.2 kcal⋅mol^−1 and 0.33±0.12 kcal⋅mol^−1; Δ(ΔH 20 °C) [7]: 1.4 ± 0.6 kcal⋅mol^−1; Δ(‐TΔS) 20 °C [7]: -1.0 kcal⋅mol^−1 and −1.0±0.8 kcal⋅mol^−1; Δ(ΔG 37 °C) [8]: −0.25±0.08 kcal⋅mol^−1; Δ(ΔH 37 °C) [8]: 0.7 ± 0.7 kcal⋅mol^−1; Δ(‐TΔS) 37 °C [8]: -1.0 ± 0.8 kcal⋅mol^−1; Δ(ΔG 37 °C) [9]: 0.3 ± 0.1 kcal⋅mol^−1 and 0.34±0.08 kcal⋅mol^−1; Δ(ΔH 37 °C) [9]: 1.0 ± 0.7 kcal⋅mol^−1; Δ(‐TΔS) 37 °C [9]: -0.6 ± 0.8 kcal⋅mol^−1; Δ(ΔCp) (peptide 2 minus peptide 1 (pair 2–1)): −0.07±0.05 kcal⋅mol^−1.K^−1; Δ(ΔCp) (peptide 2 minus peptide 3 (pair 2–3)): −0.02±0.05 kcal⋅mol^−1.K^−1 |
|  |  |  |  | −9.22 [−9.27; −9.16] kcal⋅mol^−1 | 8.2 [7.8; 8.5] kcal⋅mol^−1 | −17.4 [−17.7; −17.1] kcal⋅mol^−1 | −8.71 [−8.80; −8.63] kcal⋅mol^−1 | 14.3 [13.5; 15.1] kcal⋅mol^−1 | −23.0 [−23.7; −22.3] kcal⋅mol^−1 | −0.33 [−0.38; −0.28] kcal⋅mol^−1.K^−1 |  | CCCC[C@@H]1NC(=O)[C@H](C(C)C)NC(=O)[C@H](Cc2c[nH]cn2)NC(=O)[C@H]([C@@H](C)CC)NC(=O)[C@H](CC(=O)O)NC(=O)[C@@H](N)CSSC[C@@H](C(=O)N[C@@H](Cc2ccccc2)C(=O)N[C@@H](CCC(=O)O)C(=O)N[C@@H](CCC(=O)O)C(=O)N[C@@H](CC(C)C)C(N)=O)NC(=O)[C@H](CCCCN)NC(=O)[C@H](Cc2c[nH]c3ccccc23)NC(=O)[C@H](CCC(=O)O)NC(=O)[C@H](Cc2c[nH]c3ccccc23)NC1=O [compound 4] (H-CDIHV[Nle]WEWKCFEEL-NH2; disulfide 1-11) |  |
